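Following 48 hours of exposure in 96-well plates, responses at five concentrations were used to interpolate endpoints linearly. GI50 = concentration required for 50% inhibition of growth. At the TGI there is no net growth.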
How the values were obtained:
Test in all cases: growth of human tumour cells (NCI), 48 h
HT29 colon = tested on: HT29 colon
SF-268 CNS = tested on: SF-268 CNS
SF-295 CNS = tested on: SF-295 CNS
SR leukemia = tested on: SR leukemia
HCC-2998 colon = tested on: HCC-2998 colon
NCI-H460 lung = tested on: NCI-H460 lung
M14 melanoma = tested on: M14 melanoma
HCT-15 colon = tested on: HCT-15 colon
NCI-H226 lung = tested on: NCI-H226 lung
LOX IMVI melanoma = tested on: LOX IMVI melanoma

SMILES: O=C(Nc1ccc2c(c1)oc(=O)c1ccccc12)C(Cl)Cl
- TGI (HT29 colon): 97.8 µM
- TGI (SF-268 CNS): > 100 µM
- TGI (SF-295 CNS): > 100 µM
- TGI (SR leukemia): > 100 µM
- TGI (HCC-2998 colon): > 100 µM
- TGI (NCI-H460 lung): 92.5 µM
- TGI (M14 melanoma): > 100 µM
- TGI (HCT-15 colon): > 100 µM
- TGI (NCI-H226 lung): > 100 µM
- TGI (LOX IMVI melanoma): > 100 µM

SMILES: CCCCCCCCCCCCC(=O)[O-].CCCCCCCCCCCCC(=O)[O-].CCCCCCCCCCCCC(=O)[O-].CCCCCCCCCCCCC(=O)[O-].[Mo+2].[Mo+2]
- GI50 (HT29 colon): 12.6 µM
- TGI (HT29 colon): 27.1 µM
- GI50 (SF-268 CNS): 17.3 µM
- TGI (SF-268 CNS): 45.1 µM
- GI50 (SF-295 CNS): 6.28 µM
- TGI (SF-295 CNS): 27.7 µM
- GI50 (SR leukemia): 5.83 µM
- TGI (SR leukemia): 29.8 µM
- GI50 (HCC-2998 colon): 19.9 µM
- TGI (HCC-2998 colon): 49.8 µM
- GI50 (NCI-H460 lung): 17.1 µM
- TGI (NCI-H460 lung): 60.1 µM
- GI50 (M14 melanoma): 11.7 µM
- TGI (M14 melanoma): 27.8 µM
- GI50 (HCT-15 colon): 10.4 µM
- TGI (HCT-15 colon): 22.1 µM
- GI50 (NCI-H226 lung): 12.4 µM
- TGI (NCI-H226 lung): 46.8 µM
- GI50 (LOX IMVI melanoma): 12.1 µM
- TGI (LOX IMVI melanoma): 25.2 µM

SMILES: COc1ccc2c(C(=O)O)cc3cc(OC)c(OC)cc3c2c1
- TGI (HT29 colon): > 100 µM
- TGI (SF-268 CNS): > 100 µM
- TGI (SF-295 CNS): > 100 µM
- TGI (SR leukemia): > 100 µM
- TGI (HCC-2998 colon): > 100 µM
- TGI (NCI-H460 lung): > 100 µM
- TGI (M14 melanoma): > 100 µM
- TGI (HCT-15 colon): > 100 µM
- TGI (NCI-H226 lung): > 100 µM
- TGI (LOX IMVI melanoma): > 100 µM

SMILES: C=C[C@]1(C)C=C2C(=O)[C@@]3(O)OC[C@@]4(CCCC(C)(C)C43O)C2(O)C(O)C1 (stereo not given in full)
- GI50 (HT29 colon): 1.46 µM
- TGI (HT29 colon): > 21.5 µM
- GI50 (SF-268 CNS): 11.3 µM
- TGI (SF-268 CNS): 23.9 µM
- GI50 (SF-295 CNS): 21.6 µM
- TGI (SF-295 CNS): > 70.5 µM
- GI50 (SR leukemia): 1.97 µM
- TGI (SR leukemia): 24.9 µM
- GI50 (HCC-2998 colon): 17.2 µM
- TGI (HCC-2998 colon): 31.5 µM
- GI50 (NCI-H460 lung): 12.5 µM
- TGI (NCI-H460 lung): 28.2 µM
- GI50 (M14 melanoma): 1.55 µM
- TGI (M14 melanoma): 3.01 µM
- GI50 (HCT-15 colon): 3.04 µM
- TGI (HCT-15 colon): 9.21 µM
- GI50 (NCI-H226 lung): 5.43 µM
- TGI (NCI-H226 lung): 12.1 µM
- GI50 (LOX IMVI melanoma): 1.96 µM
- TGI (LOX IMVI melanoma): 6.48 µM

SMILES: COC(=O)C(Cc1nc2ccc(Cl)cc2[nH]c1=O)C(=O)C(=O)Nc1ccccc1[N+](=O)[O-] (stereo not given)
- TGI (HT29 colon): > 100 µM
- TGI (SF-268 CNS): > 100 µM
- TGI (SF-295 CNS): > 100 µM
- TGI (SR leukemia): > 100 µM
- TGI (HCC-2998 colon): > 100 µM
- TGI (NCI-H460 lung): > 100 µM
- TGI (M14 melanoma): > 100 µM
- TGI (HCT-15 colon): > 100 µM
- TGI (NCI-H226 lung): > 100 µM
- TGI (LOX IMVI melanoma): > 100 µM

SMILES: Cc1ccc2c(c1)ncn2-c1ncnc2c1CC(C)c1ccccc1N2C (stereo not given)
- GI50 (HT29 colon): 0.0922 µM
- TGI (HT29 colon): 14.5 µM
- GI50 (SF-268 CNS): 0.209 µM
- TGI (SF-268 CNS): 15.6 µM
- GI50 (SF-295 CNS): 0.0486 µM
- TGI (SF-295 CNS): 12.2 µM
- GI50 (SR leukemia): 0.0362 µM
- TGI (SR leukemia): 1.98 µM
- GI50 (HCC-2998 colon): 0.304 µM
- TGI (HCC-2998 colon): 14.5 µM
- GI50 (NCI-H460 lung): 0.225 µM
- TGI (NCI-H460 lung): 11.3 µM
- GI50 (M14 melanoma): 0.0587 µM
- TGI (M14 melanoma): 14.1 µM
- GI50 (HCT-15 colon): 0.0984 µM
- TGI (HCT-15 colon): 12.5 µM
- GI50 (NCI-H226 lung): 1.21 µM
- TGI (NCI-H226 lung): 18.7 µM
- GI50 (LOX IMVI melanoma): 0.124 µM
- TGI (LOX IMVI melanoma): 13 µM

SMILES: Cc1cc(N2CCCC2)nc(N(CCCNc2ccnc3cc(Cl)ccc23)Cc2ccc3c(c2)OCO3)n1
- GI50 (HT29 colon): 0.541 µM
- TGI (HT29 colon): 2.83 µM
- GI50 (SF-268 CNS): 2.89 µM
- TGI (SF-268 CNS): 16.6 µM
- GI50 (SF-295 CNS): 1.16 µM
- TGI (SF-295 CNS): 2.89 µM
- GI50 (SR leukemia): 0.152 µM
- TGI (SR leukemia): 0.431 µM
- GI50 (HCC-2998 colon): 1.79 µM
- TGI (HCC-2998 colon): 3.79 µM
- GI50 (NCI-H460 lung): 1.29 µM
- TGI (NCI-H460 lung): 4.34 µM
- GI50 (M14 melanoma): 1.37 µM
- TGI (M14 melanoma): 3.04 µM
- GI50 (HCT-15 colon): 0.805 µM
- TGI (HCT-15 colon): 5.82 µM
- GI50 (NCI-H226 lung): 5.2 µM
- TGI (NCI-H226 lung): 33.8 µM
- GI50 (LOX IMVI melanoma): 1.03 µM
- TGI (LOX IMVI melanoma): 2.35 µM

SMILES: CCSc1nc(COC(=O)NC)c(COC(=O)NC)n1C
- TGI (HT29 colon): > 100 µM
- TGI (SF-268 CNS): > 100 µM
- TGI (SF-295 CNS): > 100 µM
- TGI (SR leukemia): > 100 µM
- TGI (HCC-2998 colon): > 100 µM
- TGI (NCI-H460 lung): > 100 µM
- TGI (M14 melanoma): > 83 µM
- TGI (HCT-15 colon): > 100 µM
- TGI (NCI-H226 lung): > 100 µM
- TGI (LOX IMVI melanoma): > 100 µM

SMILES: CN(C)CCNC(=O)c1ccc(Cl)c2c(Nc3ccc(S(N)(=O)=O)cc3)c3ccccc3nc12
- TGI (HT29 colon): 6.41 µM
- TGI (SF-268 CNS): 13.8 µM
- TGI (SF-295 CNS): 15.3 µM
- TGI (SR leukemia): > 100 µM
- TGI (HCC-2998 colon): 14.8 µM
- TGI (NCI-H460 lung): 7.28 µM
- TGI (M14 melanoma): 10.7 µM
- TGI (HCT-15 colon): 15.5 µM
- TGI (NCI-H226 lung): 4.56 µM
- TGI (LOX IMVI melanoma): 2.35 µM

SMILES: CC(=O)NC(CCCN(Cc1ccccc1)C(=O)N(CCCl)N=O)C(=O)NCc1ccccc1 (stereo not given)
- TGI (HT29 colon): > 100 µM
- TGI (SF-268 CNS): > 100 µM
- TGI (SF-295 CNS): > 100 µM
- TGI (SR leukemia): > 88.8 µM
- TGI (HCC-2998 colon): > 100 µM
- TGI (NCI-H460 lung): > 79.6 µM
- TGI (M14 melanoma): > 100 µM
- TGI (HCT-15 colon): > 100 µM
- TGI (NCI-H226 lung): > 94.2 µM
- TGI (LOX IMVI melanoma): > 57.1 µM

SMILES: COc1ccc2c(c1)C(=O)c1c-2n(CCCN2CCOCC2)c(=O)c2ccccc12
- GI50 (HT29 colon): 2.19 µM
- TGI (HT29 colon): > 45 µM
- GI50 (SF-268 CNS): 2.7 µM
- TGI (SF-268 CNS): > 43.9 µM
- GI50 (SF-295 CNS): 1.35 µM
- TGI (SF-295 CNS): 9.71 µM
- GI50 (SR leukemia): 0.579 µM
- TGI (SR leukemia): > 32.6 µM
- GI50 (HCC-2998 colon): 3.08 µM
- TGI (HCC-2998 colon): 20.4 µM
- GI50 (NCI-H460 lung): 0.561 µM
- TGI (NCI-H460 lung): 3.58 µM
- GI50 (M14 melanoma): 2.85 µM
- TGI (M14 melanoma): 7.87 µM
- GI50 (HCT-15 colon): 3.64 µM
- TGI (HCT-15 colon): > 100 µM
- GI50 (NCI-H226 lung): 2.59 µM
- TGI (NCI-H226 lung): 7.57 µM
- GI50 (LOX IMVI melanoma): 1.45 µM
- TGI (LOX IMVI melanoma): 3.36 µM

SMILES: O=C(NN1C(=O)CSC1c1ccc(Cl)cc1)c1[nH]c2ccc(F)cc2c1-c1ccccc1 (stereo not given)
- GI50 (HT29 colon): 3.09 µM
- TGI (HT29 colon): 10.5 µM
- GI50 (SF-268 CNS): 2.51 µM
- TGI (SF-268 CNS): 7.19 µM
- GI50 (SF-295 CNS): 2.86 µM
- TGI (SF-295 CNS): 11.4 µM
- GI50 (SR leukemia): 2.27 µM
- TGI (SR leukemia): 6.27 µM
- GI50 (HCC-2998 colon): 2.31 µM
- TGI (HCC-2998 colon): 5.63 µM
- GI50 (NCI-H460 lung): 2.81 µM
- TGI (NCI-H460 lung): 7.84 µM
- GI50 (M14 melanoma): 2.5 µM
- TGI (M14 melanoma): 6.45 µM
- GI50 (HCT-15 colon): 3.9 µM
- TGI (HCT-15 colon): 14.3 µM
- GI50 (NCI-H226 lung): 3.51 µM
- TGI (NCI-H226 lung): 9.43 µM
- GI50 (LOX IMVI melanoma): 2.65 µM
- TGI (LOX IMVI melanoma): 7.18 µM

SMILES: COC(=O)[C@@H]1CCCN1C(=O)[C@@H]1CCCN1C(=O)[C@@H](Cc1c[nH]c2ccccc12)NC(=S)Nc1cc(C(F)(F)F)cc(C(F)(F)F)c1
- GI50 (HT29 colon): 3.68 µM
- TGI (HT29 colon): 23.3 µM
- GI50 (SF-268 CNS): 6.44 µM
- TGI (SF-268 CNS): > 100 µM
- GI50 (SF-295 CNS): 6.48 µM
- TGI (SF-295 CNS): > 100 µM
- GI50 (SR leukemia): 2.39 µM
- TGI (SR leukemia): 6.44 µM
- GI50 (HCC-2998 colon): 2.9 µM
- TGI (HCC-2998 colon): 9.05 µM
- GI50 (NCI-H460 lung): 4.77 µM
- TGI (NCI-H460 lung): > 100 µM
- GI50 (M14 melanoma): 4.68 µM
- TGI (M14 melanoma): 21.1 µM
- GI50 (HCT-15 colon): 4.87 µM
- TGI (HCT-15 colon): > 100 µM
- GI50 (NCI-H226 lung): 7.74 µM
- TGI (NCI-H226 lung): > 100 µM
- GI50 (LOX IMVI melanoma): 1.89 µM
- TGI (LOX IMVI melanoma): 4.38 µM

SMILES: C=CCc1ccc(O)c(-c2cc(C3Oc4c(-c5cc(CC=C)ccc5O)cc(O)cc4[C@@H]3CO)ccc2O)c1 (stereo not given in full)
- TGI (HT29 colon): 79.3 µM
- TGI (SF-268 CNS): 82.5 µM
- TGI (SF-295 CNS): > 100 µM
- TGI (SR leukemia): 47.7 µM
- TGI (HCC-2998 colon): 68.7 µM
- TGI (NCI-H460 lung): > 100 µM
- TGI (M14 melanoma): > 100 µM
- TGI (HCT-15 colon): 29.3 µM
- TGI (NCI-H226 lung): > 100 µM
- TGI (LOX IMVI melanoma): 32.3 µM
